Measured values from the supplement of paper PMC13380429.

Columns and labels:
Settings in all cases: 72 h
Caco-2 [1] = assay: cell viability relative to DMSO; higher = less toxic
Calu-3 [2] = assay: as above
HepG2 [3] = assay: as above
U2OS [4] = assay: as above
Vero E6 [5] = assay: as above
Caco-2 [6] = assay: relative viability EC50 (midpoint between 100% and the lowest measured viability); higher = less toxic
Calu-3 [7] = assay: as above
U2OS [8] = assay: as above
Vero E6 [9] = assay: as above
Caco-2 [10] = assay: drug sensitivity score (DSS) for viability; higher = more toxic; extreme values may be limits of the assay
Calu-3 [11] = assay: as above
HepG2 [12] = assay: as above
U2OS [13] = assay: as above
Vero E6 [14] = assay: as above
HepG2 [15] = assay: relative viability EC50 (midpoint between 100% and the lowest measured viability); higher = less toxic

Structure (SMILES) | cell viability (Caco-2 [1]; 1 nM) | cell viability (Caco-2 [1]; 10 nM) | cell viability (Caco-2 [1]; 100 nM) | cell viability (Caco-2 [1]; 1000 nM) | cell viability (Caco-2 [1]; 10000 nM) | cell viability (Calu-3 [2]; 1 nM) | cell viability (Calu-3 [2]; 10 nM) | cell viability (Calu-3 [2]; 100 nM) | cell viability (Calu-3 [2]; 1000 nM) | cell viability (Calu-3 [2]; 10000 nM) | cell viability (HepG2 [3]; 1 nM) | cell viability (HepG2 [3]; 10 nM) | cell viability (HepG2 [3]; 100 nM) | cell viability (HepG2 [3]; 1000 nM) | cell viability (HepG2 [3]; 10000 nM) | cell viability (U2OS [4]; 1 nM) | cell viability (U2OS [4]; 10 nM) | cell viability (U2OS [4]; 100 nM) | cell viability (U2OS [4]; 1000 nM) | cell viability (U2OS [4]; 10000 nM) | cell viability (Vero E6 [5]; 1 nM) | cell viability (Vero E6 [5]; 10 nM) | cell viability (Vero E6 [5]; 100 nM) | cell viability (Vero E6 [5]; 1000 nM) | cell viability (Vero E6 [5]; 10000 nM) | relative viability EC50 (Caco-2 [6]) | relative viability EC50 (Calu-3 [7]) | relative viability EC50 (U2OS [8]) | relative viability EC50 (Vero E6 [9]) | drug sensitivity score (Caco-2 [10]) | drug sensitivity score (Calu-3 [11]) | drug sensitivity score (HepG2 [12]) | drug sensitivity score (U2OS [13]) | drug sensitivity score (Vero E6 [14]) | relative viability EC50 (HepG2 [15])
O=C(NC1CCN(Cc2ccccc2)CC1)c1ccc(I)cc1 [4-IBP] | 104% | 101% | 99.4% | 103% | 88.8% | 104% | 104% | 104% | 95.9% | 102% | 94.5% | 108% | 104% | 105% | 68% | 102% | 99.9% | 101% | 97.6% | 98.8% | 109% | 106% | 107% | 101% | 93.2% | > 10 µM | > 10 µM | > 10 µM | > 10 µM | 0 | 0 | 1.2 | 0 | 0 | –
Cc1c(O)c(=O)n(-c2ccccc2)n1C [4-hydroxy-phenazone] | 98.7% | 98.7% | 90.2% | 92.3% | 90.6% | 107% | 105% | 101% | 96.8% | 102% | 102% | 103% | 110% | 96.6% | 115% | – | – | – | – | – | 98% | 98.3% | 103% | 103% | 92.9% | > 10 µM | > 10 µM | – | > 10 µM | 0 | 0 | 0 | – | 0 | > 10 µM
Cc1c(Cl)cccc1S(=O)(=O)Nc1nc(CC(=O)N2CCN(C)CC2)cs1 [BVT-2733] | 106% | 92.6% | 100% | 106% | 98.3% | 108% | 102% | 92.5% | 102% | 106% | 104% | 101% | 92.7% | 104% | 97.4% | – | – | – | – | – | 103% | 101% | 107% | 102% | 94.6% | > 10 µM | > 10 µM | – | > 10 µM | 0 | 0 | 0 | – | 0 | > 10 µM
O=c1[nH]nc2c3c(cccc13)N=C(CN1Cc3ccccc3C1)N2 [E7449] | 127% | 104% | 102% | 99% | 89.1% | 109% | 99.1% | 98.6% | 97.6% | 88.6% | 95% | 103% | 98.6% | 95.9% | 59.8% | 105% | 106% | 106% | 94.7% | 87.3% | 102% | 100% | 96.3% | 96.3% | 83.7% | > 10 µM | > 10 µM | > 10 µM | > 10 µM | 0 | 0.1 | 2.7 | 0.3 | 0.6 | –
CCn1cc(-c2cccc(C(F)(F)F)c2)c2sc(C(=N)NC3CCS(=O)(=O)CC3)cc2c1=O [I-BRD9] | 111% | 102% | 97% | 97.8% | 93.5% | 112% | 99.5% | 106% | 95.4% | 79.5% | 94.4% | 99.2% | 98.6% | 97.5% | 63.4% | 103% | 102% | 99.1% | 99.5% | 92% | 95.1% | 95.8% | 98.7% | 98.1% | 92.3% | > 10 µM | > 10 µM | > 10 µM | > 10 µM | 0 | 1.2 | 2.1 | 0 | 0 | –
CCC1(c2ccccc2)C(=O)N(COC)C(=O)N(COC)C1=O [eterobarb] | 102% | 90.8% | 95.3% | 105% | 111% | 111% | 88.2% | 110% | 88.5% | 105% | 105% | 114% | 97.4% | 100% | 88.4% | – | – | – | – | – | 112% | 110% | 102% | 106% | 86.8% | > 10 µM | > 10 µM | – | > 10 µM | 0 | 0 | 0 | – | 0 | > 10 µM
N=C(N)SCCc1c[nH]cn1 [imetit] | 97.2% | 99.1% | 97% | 100% | 93.5% | 97.8% | 109% | 97% | 93.7% | 87.8% | 112% | 111% | 95.9% | 95.2% | 112% | – | – | – | – | – | 103% | 103% | 103% | 97.1% | 101% | > 10 µM | > 10 µM | – | > 10 µM | 0 | 0.1 | 0 | – | 0 | > 10 µM
COc1cc([S+](C)[O-])ccc1-c1nc2cccnc2[nH]1 (stereo unspecified) [sulmazole] | 115% | 98.5% | 98.8% | 99.5% | 112% | 108% | 90.3% | 90.7% | 93.8% | 104% | 106% | 103% | 95.5% | 102% | 100% | – | – | – | – | – | 98% | 102% | 98.5% | 97.8% | 101% | > 10 µM | > 10 µM | – | > 10 µM | 0 | 0 | 0 | – | 0 | > 10 µM
C=C[C@]1(C)C[C@@H](OC(=O)CSC(C)(C)CNC(=O)[C@H](N)C(C)C)[C@]2(C)[C@H](C)CC[C@]3(CCC(=O)[C@H]32)[C@@H](C)[C@@H]1O [valnemulin] | 99.4% | 93.3% | 91.8% | 94.5% | 80.9% | 94.3% | 98.6% | 102% | 101% | 98.9% | 98.6% | 104% | 93.7% | 88.1% | 63% | 97.4% | 99.4% | 97.7% | 96.3% | 79.5% | 97.1% | 98.7% | 103% | 95.1% | 88.3% | > 10 µM | > 10 µM | > 10 µM | > 10 µM | 0.7 | 0 | 3 | 1.1 | 0.2 | –
